Source: US9814754B2, “Combinations with a backbone-cyclized peptide” (POLYPHOR AG, priority 2012, dated 2017)
Square brackets hold non-standard residues; d marks the D form. dDab = NCC[C@@H](N)C(=O)O; Orn = NCCC[C@H](N)C(=O)O; Dab = NCC[C@H](N)C(=O)O

Tested on: Pseudomonas aeruginosa clinical isolate PAX11045
Assay: Murine pneumonia model, compound 1 in combination with azithromycin (Example 2)
Assay type: in vivo
Procedure: The efficacy and ED50 of the compound of formula (I) (“compound 1”) in combination with azithromycin was determined against Pseudomonas aeruginosa clinical isolate PAX11045 in a pneumonia model in mice. Colony counts in lung were determined at 20 hours post treatment.
Fresh overnight colonies of PAX11045 from a 5% Horse Blood Agar plate were suspended in 0.9% sterile saline to approximately 10^8 CFU/ml and further diluted to approximately 5×10^7 CFU/ml. Female mice (DBA/2, outbred, 17-23 g, Charles River) were anesthetized with 0.1 ml of Zoletil and inoculated via the nose with a pipette with 0.05 ml of the bacteria suspension containing approximately 10^6 CFU. 4 hours after inoculation, the mice were treated orally with 45 μl neurophen (20 mg ibuprofen/ml corresponding to approximately 30 mg/kg) as pain relief.
480 mg of azithromycin (Zitromax™, Pfizer) were dissolved in 4.8 ml 0.9% sterile saline to a concentration of 100 mg/ml and further diluted with saline to 5 mg/ml. The mice were treated subcutaneously with 0.2 ml in the neck region with a single dose at 3 hours post infection corresponding to 50 mg/kg on the basis of a mean animal weight of 20 g.
The mice were treated subcutaneously with 0.2 ml in the neck region with a single dose at 4 hours post infection with a dose calculation based on a mean animal weight of 20 g.
Colony counts were determined post inoculation at 4 hours (untreated mice) and 24 hours (treated and vehicle-only treated mice). Immediately after the mice were sacrificed, the lungs were collected and frozen at −20° C. After thawing, the organs were homogenized in 1 ml 0.9% saline. Each sample was then 10 fold diluted in saline and 20 μl spots were applied on blood agar plates. All agar plates were incubated 18-24 hours at 35° C. in ambient air.

[1] = in presence of 50 mg/kg azithromycin, murine lungs

For “cyclo(TWI[Dab][Orn][dDab][Dab]W[Dab][Dab]AS[dP]P) [compound 1]”, the “effect on bacterial loads” value (5.5 mg/kg alone, lung, p<0.001) was “significant effect on reducing the bacterial loads”, the “CFU levels compared to vehicle treatment” value (combination of compound 1 (dose series) and azithromycin 50 mg/kg, lung, p<0.01-p<0.001) was “concentration dependent significant reduction of the CFU levels” and the Top level (compound 1 s.c. in presence of 50 mg/kg azithromycin (s.c., 3 h post infection), murine lungs) was −0.10 log10 CFU/ml. For the same substance, the “1 log killing dose” value [1] was 1.2 mg/kg, the “2 log killing dose” value [1] was 2.4 mg/kg and the Bottom level [1] was −2.59 log10 CFU/ml. It also gave an Emax [1] of 2.49 log10 CFU/ml, a Static dose [1] of 0.63 mg/kg and an ED50 (in presence of fixed dose of 50 mg/kg azithromycin, murine lungs) of 1.74 mg/kg.
